According to patent US9782394B2, “Inhibitors for ERG oncogene positive cancers” (The Henry M. Jackson Foundation for the Advancement of …, priority 2014, dated 2017):

Assays:
VCaP cells = assay: Cell growth inhibition, VCaP; assay type: cell-based; conditions: for inhibition of cell growth: VCaP cells in culture, 1 μM and 10 μM
Method: (§1) 48 hours following plating of cells, the appropriate test compound is added to each well of the tissue culture dish at a predetermined concentration. The medium was replenished every 24 hours with fresh growth medium containing the same concentration of the same test compound for indicated period of the cell growth inhibition assay. Percent cell growth inhibition was calculated using a hemocytometer for estimating cell density in each of the test wells of the tissue culture dish and trypan blue dye exclusion microscopy and photography to estimate the fraction of viable cells in each test well.
(§2) The protein inhibition studies described above indicate that ERGi-USU is a selective inhibitor of ERG expression. To investigate whether ERGi-USU selectively arrested the growth of ERG positive cancer cells without arresting the growth of ERG negative cancer cells, a cell growth inhibition study was carried out using the following cancer and normal cell lines: ERG positive cancer cells (VCaP, COLO320, MOLT-4 and KG-1) cancer cells, ERG negative cancer cells (LNCaP, MDA PCa2b and LAPC4) cancer cells, normal prostate RWPE-1 and BPH-1 cells and normal endothelial HUVEC cells. Each cell line was cultured to achieve cells in logarithmic growth and these cells were then plated in 10 cm wells of a tissue culture dishes at a cell density of 2×10^6 cells per well. The plated cells were contacted with 0, 0.1, 0.5, 1.0, 5.0, and 10 μM concentrations of ERGi-USU for a period of 2, 4, 6 and 8 days. At the end of each time period, cells are recovered from the test plate, washed and the cell density and viability determined using a hemocytometer and trypan blue dye staining method. Cell growth inhibition was expressed as a graph correlating cell number to the concentration of ERGi-USU.
(§3) FIG. 4 illustrates the results of cell growth inhibition studies that were used to calculate the concentration of ERGi-USU needed for inhibiting 50% of the growth (IC50) of the cells mentioned above. As illustrated by this figure, ERGi-USU was a potent inhibitor of the growth of ERG positive cancer cells in culture.

RWPE-1 cells = assay: Cell growth inhibition, RWPE-1; assay type: cell-based; conditions: Homo sapiens; RWPE-1, normal prostate; read-out: Cell growth inhibition (ERGi-USU: IC50)
Method: as §1
(§4) The protein inhibition studies described above indicate that ERGi-USU is a selective inhibitor of ERG expression. […] At the end of each time period, cells are recovered from the test plate, washed and the cell density and viability determined using a hemocytometer and trypan blue dye staining method. Cell growth inhibition was expressed as a graph correlating cell number to the concentration of ERGi-USU. […]

PSA = assay: Western blot analysis of PSA expression in prostate cancer cells; assay type: cell-based; conditions: 0.1-10 μM
Method: (§5) Cultured cells were treated at specific dosages with each of the test ERG inhibitors. Following incubation of the treated cells for indicated time period, cells were lysed using Mammalian Protein Extraction Reagent (M-PER; Pierce, Rockford, Ill.) containing a protease inhibitor cocktail and phosphatase inhibitor cocktails I & III (Sigma, St Louis, Mo.). Cell lysates containing 50 μg of total protein were electrophoresed through 4-12% Bis-Tris Gel (Invitrogen, Carlsbad, Calif.) and the cellular proteins were transferred to PVDF membrane (Invitrogen, Carlsbad, Calif.). Membranes were incubated at 4° C. for 12 hours with primary antibodies for AR, PSA, GAPDH, α-Tubulin, apoptosis markers and cell cycle regulators. Following exposure to primary antibodies, the membranes were washed with buffer (three times, 5 minutes each at room temperature) followed by incubation with relevant secondary antibodies for 1 hour at 24° C. Finally, the membranes were washed with buffer and developed using the ECL Western blot detection reagent (GE Health Care, Buckinghamshire, UK).
(§6) Briefly, ERG positive VCaP cells and ERG negative LNCaP, MDA PCa2b and LAPC4 cells in logarithmic growth were plated in 10 cm tissue culture dish at a cell density of 2×10^6 cells per dish. The plated cells were contacted with 0, 0.1, 0.5, 1.0, 5.0, and 10 μM concentrations of ERGi-USU for a period of 48 hours. Cells from each dish were then processed for Western blot analysis and alterations in the expression of ERG protein were monitored.

ERG mRNA = assay: Quantitative RT-PCR analysis of ERG transcripts in VCaP cells; assay type: cell-based, human; conditions: 1 μM, 24 hours
Method: The ERG inhibitors identified by the primary screen were used in a quantitative RT-PCR assay to evaluate their ability to inhibit ERG mRNA expression. Briefly, VCaP cells were treated at a concentration of 1 μM with each of the ten compounds for 24 hours. Following incubation with the test compounds the cells are lysed and the total RNA isolated. 200 ng of the total RNA was used for analysis of ERG transcripts by qRT-PCR using a pair of ERG primers specific for the coding sequence of tERG for analysis.

MOLT-4 cells = assay: Cell growth inhibition, MOLT-4; assay type: cell-based; conditions: Homo sapiens; MOLT-4, ERG positive acute lymphoblastic leukemia; read-out: Cell growth inhibition (ERGi-USU: IC50)
Method: as §1, §4

COLO320 cells = assay: Cell growth inhibition, COLO320; assay type: cell-based; conditions: Homo sapiens, COLO 320; COLO320, ERG positive colon adenocarcinoma; read-out: Cell growth inhibition (ERGi-USU: IC50)
Method: as §1, §4

AR = assay: Western blot analysis of AR expression in prostate cancer cells; assay type: cell-based; conditions: 0.1-10 μM
Method: as §5, §6

ERG protein = target: T1, ERG protein (Homo sapiens, UniProt P11308); assay: In-cell Western primary screen for inhibitors of ERG expression in VCaP cells; assay type: cell-based; conditions: single 1 μM dose, 48 hours, duplicate screen
T1 construct: contacting a TMPRSS2-ERG fusion positive prostate cancer (VCaP) cell line with a fixed concentration of each compound; host or cells: VCaP
T1 sequence (P11308 33-479 limits assumed): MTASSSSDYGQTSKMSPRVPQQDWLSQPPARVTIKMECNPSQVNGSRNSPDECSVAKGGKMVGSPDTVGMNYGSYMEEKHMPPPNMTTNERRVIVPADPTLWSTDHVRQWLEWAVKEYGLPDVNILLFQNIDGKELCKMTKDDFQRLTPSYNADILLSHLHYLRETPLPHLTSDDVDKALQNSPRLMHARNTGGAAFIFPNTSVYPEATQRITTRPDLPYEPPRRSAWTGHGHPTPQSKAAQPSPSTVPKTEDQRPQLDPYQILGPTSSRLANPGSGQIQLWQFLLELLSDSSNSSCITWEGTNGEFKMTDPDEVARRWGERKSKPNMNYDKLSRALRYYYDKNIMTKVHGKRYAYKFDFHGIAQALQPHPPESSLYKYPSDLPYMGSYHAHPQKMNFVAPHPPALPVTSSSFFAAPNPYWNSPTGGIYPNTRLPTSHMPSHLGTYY
Text: To identify ERG specific small molecule inhibitors, the present inventors screened a library of small molecule compounds, by contacting a TMPRSS2-ERG fusion positive prostate cancer (VCaP) cell line with a fixed concentration of each compound in the small molecule library. ERG protein expression was monitored using an In-cell Western blot assay (LI-COR Biosciences, Lincoln, Nebr.), using a highly specific ERG monoclonal antibody (CPDR ERG-mAb; 9FY) for detection. See Furusato et al., Prostate Cancer Prostatic Dis., 13:228-372 (2010); Mohamed et al., J. Cancer, 1:197-208, (2010); Miettinen et al., Am. J. Surg Pathol., 35:432-41 (2011); and U.S. patent publication No. 2012/0135018A1.
The TMPRSS2-ERG fusion positive prostate cancer cell line, VCaP (ATCC), was used to identify small molecule inhibitors of ERG expression. […] The inhibition of ERG expression was evaluated by an In-cell Western blot assay (LI-COR Biosciences, Lincoln, Nebr.) using the ERG specific CPDR ERG-MAb as further described below. […]
Inhibition of ERG expression by the test compounds was determined by an In-cell Western assay (LI-COR Biosciences, Lincoln, Nebr.). […]
The tissue culture plates were imaged on a Li-Cor Odyssey Infrared Imaging System and infrared signals were measured to provide values for ERG expression and cell number via DNA staining. […]

KG-1 cells = assay: Cell growth inhibition, KG-1; assay type: cell-based; conditions: Homo sapiens; KG-1, ERG positive myeloid leukemia; read-out: Cell growth inhibition (ERGi-USU: IC50)
Method: as §1, §4

HUVEC cells = assay: Cell growth inhibition, HUVEC; assay type: cell-based; conditions: Homo sapiens, ERG positive normal endothelial, read-out: Cell growth inhibition (ERGi-USU: IC50)
Method: as §1, §4

VCaP xenograft tumors = assay: VCaP xenograft tumor growth inhibition in nude mice; assay type: in vivo; conditions: male nude mice, 150 mg/kg intraperitoneally 3 times per week, versus vehicle control and 100 mg/kg
Method: Male athymic nude mice 6-8 weeks old and weighing 27 to 30 g were purchased from Charles River Laboratories. ERG harboring prostate cancer cells (VCaP) were trypsinized and washed twice with ice-cold PBS, and resuspended in ice-cold 50% matrigel in serum-free DMEM medium. A total of 4×10^6 cells/0.1 ml/mouse were subcutaneously injected into lower right dorsal flank of the mice. Prior to injection, mice were anesthetized with inhalation anesthesia (isoflurane). Tumor growth was monitored weekly after injection. Three weeks later when tumors were palpable mice were randomly separated into 2 experimental groups and one control group of 7 mice in each group. In the treatment groups mice were injected intraperitoneally (I.P) with 100 mg/kg of ERGi-USU or 150 mg/kg of ERGi-USU while the control group were injected with vehicle (1:1 [v/v], DMSO/PEG300) only. Growth in tumor volume was recorded weekly by digital caliper measurements and tumor volumes calculated using the ½ (L×W^2) formula, where L=length of tumor and W=width. Tumor volumes were compared between treated and control groups with repeated measurements and statistical significance of the results between the groups computed using students t-test and p values calculated.
Male nude mice were injected with about 4×10^6 VCaP cells and tumor growth was monitored. […] Tumor growth was monitored weekly.

LNCaP cells = assay: Cell growth inhibition, LNCaP; assay type: cell-based; conditions: for inhibition of cell growth: ERG negative LNCaP cells, 1 μM and 10 μM
Method: as §1, §2, §3

LAPC4 cells = assay: Cell growth inhibition, LAPC4; assay type: cell-based; conditions: Homo sapiens; LAPC4, ERG negative metastatic prostate cancer; read-out: Cell growth inhibition (ERGi-USU: IC50)
Method: as §1, §4

BPH-1 cells = assay: Cell growth inhibition, BPH-1; assay type: cell-based; conditions: Homo sapiens; BPH-1, normal prostate; read-out: Cell growth inhibition (ERGi-USU: IC50)
Method: as §1, §4

MDA PCa2b cells = assay: Cell growth inhibition, MDA PCa2b; assay type: cell-based; conditions: MDA-PCa-2b, ERG negative prostate cancer, read-out: Cell growth inhibition (ERGi-USU: IC50)
Method: as §1, §4

[1] = AR positive/ERG negative LNCaP, MDA PCa2b and LAPC4 cells, 48 hours

In the case of `Oc1ccc2ccccc2c1/N=N/c1nccs1` [ERGi-USU, 1-(thiazol-2-yldiazenyl)naphthalene-2-ol], the IC50 (VCaP cells; Homo sapiens, VCaP, ERG positive metastatic prostate cancer, read-out: Cell growth inhibition (ERGi-USU: IC50)) is reported as 0.3 µM, the IC50 (RWPE-1 cells) is reported as > 10 µM and the “inhibition of PSA protein expression” value (PSA; [1]) is reported as “does not inhibit”. The “inhibition of PSA protein expression” value (PSA; VCaP cells) was “inhibits expression of PSA, and AR proteins”, the “inhibition of ERG mRNA expression (qRT-PCR)” value (from here on “inhibition … (qRT-PCR)”) (ERG mRNA) was “inhibitors of ERG-mRNA expression” and the IC50 (MOLT-4 cells) was 0.05 µM. The IC50 (COLO320 cells) was 0.3 µM, the “inhibition of AR protein expression” value (AR; [1]) was “does not inhibit” and the “inhibition of AR protein expression” value (AR; VCaP cells) was “inhibits expression of PSA, and AR proteins”. The “inhibition of ERG protein expression (In-cell Western, normalized by cell number)” value (ERG protein) was “inhibitors of ERG protein expression”, the IC50 (KG-1 cells) was 0.2 µM and the IC50 (HUVEC cells) was > 10 µM. For the same compound, the tumor volume (VCaP xenograft tumors) was “exhibited the smallest volumes”, the IC50 (LNCaP cells; Homo sapiens, LNCaP, ERG negative metastatic prostate cancer, read-out: Cell growth inhibition (ERGi-USU: IC50)) was > 10 µM and the IC50 (LAPC4 cells) was > 10 µM. The IC50 (BPH-1 cells) was > 10 µM and the IC50 (MDA PCa2b cells) was > 10 µM.
With `Oc1ccc2ccccc2c1/N=N/c1nccs1` [NSC99629, reference compound] the “inhibition of PSA protein expression” value (PSA; VCaP cells) was “No appreciable inhibition”, the “inhibition … (qRT-PCR)” value (ERG mRNA) was “inhibitors of ERG-mRNA expression” and the “inhibition of AR protein expression” value (AR; VCaP cells) was “No appreciable inhibition”.
With `Oc1ccc2ccccc2c1/N=N/c1ccccn1` [ED-1] the “inhibition of cell growth” value (VCaP cells) was “inhibited the growth of VCaP prostate cancer cells” and the “inhibition of cell growth” value (LNCaP cells) was “no measurable inhibitory effect”.
With `Cc1[nH]ccc2c1[nH]c1cc(=O)ccc12` [NSC72292] the “inhibition … (qRT-PCR)” value (ERG mRNA) was “inhibitors of ERG-mRNA expression”.
With `NC(c1ccccc1)c1c(O)ccc2ccccc12` (stereo not drawn) [ED-3] the “inhibition of cell growth” value (VCaP cells) was “inhibited the growth of VCaP prostate cancer cells” and the “inhibition of cell growth” value (LNCaP cells) was “no measurable inhibitory effect”.
`Nc1c(O)ccc2ccccc12` [ED-2] was tested, and the “inhibition of cell growth” value (VCaP cells) was “inhibited the growth of VCaP prostate cancer cells” and the “inhibition of cell growth” value (LNCaP cells) was “no measurable inhibitory effect”.
